Assays:
[1] = test system: caterpillars of the armyworm (Spodoptera frugiperda); test: Spodoptera frugiperda test; type: in vivo; conditions: 500 ppm, dipped cabbage leaves
Experimental: Spodoptera Frugiperda Test • Solvent: 7 parts by weight of dimethylformamide • Emulsifier: 2 parts by weight of alkylaryl polyglycol ether To produce a suitable preparation of active compound, 1 part by weight of active compound is mixed with the stated amounts of solvent and emulsifier, and the concentrate is diluted with emulsifier-containing water to the desired concentration. Cabbage leaves (Brassica oleracea) are treated by being dipped into the preparation of active compound of the desired concentration and are populated with caterpillars of the armyworm (Spodoptera frugiperda) while the leaves are still moist. After the desired period of time, the kill in % is determined. 100% means that all caterpillar larvae have been killed; 0% means that none of the caterpillar have been killed.

[2] = test system: Alopecurus; test: Post-emergence test, Alopecurus; type: in vivo; conditions: post-emergence/greenhouse; 250 g a.i./ha; after three weeks
Experimental: (§1) • Solvent: 5 parts by weight of acetone • Emulsifier: 1 part by weight of alkylaryl polyglycol ether
(§2) To produce a suitable preparation of active compound, 1 part by weight of active compound is mixed with the stated amount of solvent, the stated amount of emulsifier is added and the concentrate is diluted with water to the desired concentration.
(§3) Test plants of a height of 5-15 cm are sprayed with the preparation of active compound such that the particular amounts of active compound desired are applied per unit area. The concentration of the spray liquor is chosen such that the particular amounts of active compound desired are applied in 1000 l of water/ha.
(§4) After three weeks, the degree of damage to the plants is rated in % damage in comparison to the development of the untreated control.
(§5) The figures denote: • 0% =no effect (like untreated control) • 100% =total destruction

[3] = test system: Avena fatua; test: Post-emergence test, Avena fatua; type: in vivo; conditions: post-emergence/greenhouse; 250 g a.i./ha; after three weeks
Experimental: as §1, §2, §3, §4, §5

[4] = test system: Setaria; test: Post-emergence test, Setaria; type: in vivo; conditions: post-emergence/greenhouse; 250 g a.i./ha; after three weeks
Experimental: as §1, §2, §3, §4, §5

[5] = test system: Sinapis; test: Post-emergence test, Sinapis; type: in vivo; conditions: post-emergence/greenhouse; 250 g a.i./ha; after three weeks
Experimental: as §1, §2, §3, §4, §5

[6] = test system: Wheat; test: Pre-emergence test, Wheat; type: in vivo; conditions: pre-emergence/greenhouse; 60 g a.i./ha; after three weeks; crop
Experimental: as §1, §2
(§6) Seeds of the test plants are sown in normal soil. After about 24 hours, the soil is sprayed with the preparation of active compound such that the particular amounts of active compound desired are applied per unit area. The concentration of the spray liquor is chosen such that the particular amounts of active compound desired are applied in 1000 l of water/ha.
as §4, §5

[7] = test system: Soya bean; test: Pre-emergence test, Soya bean; type: in vivo; conditions: pre-emergence/greenhouse; 60 g a.i./ha; after three weeks; crop
Experimental: as §1, §2, §6, §4, §5

[8] = test system: Digitaria; test: Pre-emergence test, Digitaria; type: in vivo; conditions: pre-emergence/greenhouse; 60 g a.i./ha; after three weeks
Experimental: as §1, §2, §6, §4, §5

[9] = test system: Lolium; test: Pre-emergence test, Lolium; type: in vivo; conditions: pre-emergence/greenhouse; 60 g a.i./ha; after three weeks
Experimental: as §1, §2, §6, §4, §5

[10] = test system: Setaria; test: Pre-emergence test, Setaria; type: in vivo; conditions: pre-emergence/greenhouse; 60 g a.i./ha; after three weeks
Experimental: as §1, §2, §6, §4, §5

[11] = test system: Matricaria; test: Pre-emergence test, Matricaria; type: in vivo; conditions: pre-emergence/greenhouse; 60 g a.i./ha; after three weeks
Experimental: as §1, §2, §6, §4, §5

[12] = test system: Pyricularia oryzae; type: cell-based; conditions: 50% inhibition of fungal growth, tested at 0.1, 1, 10 and 100 ppm, 22° C., 3-5 days, photometric 620 nm
[13] = test system: Septoria tritici; test: In vitro test for the ED50 determination in microorganisms, Septoria tritici; type: cell-based; conditions: 50% inhibition of fungal growth, tested at 0.1, 1, 10 and 100 ppm, 22° C., 3-5 days, photometric 620 nm
[14] = test system: Ustilago avenae; test: In vitro test for the ED50 determination in microorganisms, Ustilago avenae; type: cell-based; conditions: 50% inhibition of fungal growth, tested at 0.1, 1, 10 and 100 ppm, 22° C., 3-5 days, photometric 620 nm
[15] = test system: Sphaerotheca fuliginea; test: Sphaerotheca test (cucumber)/protective; type: in vivo; conditions: protective, 100 g/ha, 7 days after inoculation
Experimental: (§7) Sphaerotheca Test (Cucumber)/Protective […] To produce a suitable preparation of active compound, 1 part by weight of active compound is mixed with the stated amounts of solvent and emulsifier, and the concentrate is diluted with water to the desired concentration. To test for protective activity, young plants are sprayed with the preparation of active compound at the stated application rate. After the spray coating has dried on, the plants are inoculated with an aqueous spore suspension of Sphaerotheca fuliginea. The plants are then placed in a greenhouse at about 23° C. and a relative atmospheric humidity of about 70%.

[16] = test system: apple scab pathogen Venturia inaequalis; test: Venturia test (apple)/protective; type: in vivo; conditions: protective, 100 g/ha, 10 days after inoculation
Experimental: as §7, with “Venturia” for “Sphaerotheca”, “(Apple)/Protective” for “(Cucumber)/Protective”, “conidia” for “spore”, “the apple scab pathogen Venturia inaequalis and then remain in an incubation cabin at about 20° C. and 100% relative atmospheric humidity for 1 day.” for “Sphaerotheca fuliginea.”, “21°” for “23°”, “90%.” for “70%.”

[17] = test system: Alternaria solani; test: Alternaria test (tomato)/protective; type: in vivo; conditions: protective, 100 g/ha, 3 days after inoculation
Experimental: Alternaria Test (Tomato)/Protective […] To produce a suitable preparation of active compound, 1 part by weight of active compound is mixed with the stated amounts of solvent and emulsifier, and the concentrate is diluted with water to the desired concentration. To test for protective activity, young plants are sprayed with the preparation of active compound at the stated application rate. After the spray coating has dried on, the plants are inoculated with an aqueous spore suspension of Alternaria solani. The plants are then placed in an incubation cabin at about […] and 100% relative atmospheric humidity.

[18] = test system: Botrytis cinerea; test: Botrytis test (bean)/protective; type: in vivo; conditions: protective, 500 g/ha, 2 days after inoculation
Experimental: Botrytis Test (Bean)/Protective
• Solvent: 24.5 parts by weight of acetone 24.5 parts by weight of dimethylacetamide • Emulsifier: 1 part by weight of alkyl-arylpolyglycol ether
To produce a suitable preparation of active compound, 1 part by weight of active compound is mixed with the stated amounts of solvent and emulsifier, and the concentrate is diluted with water to the desired concentration.
To test for protective activity, young plants are sprayed with the preparation of active compound at the stated application rate. After the spray coating has dried on, two small pieces of agar colonized by Botrytis cinerea are placed onto each leaf. The inoculated plants are placed in a dark chamber at about 20° C. and 100% relative atmospheric humidity.
2 days after the inoculation, the size of the infested areas on the leaves is evaluated. 0% means an efficacy which corresponds to that of the control, whereas an efficacy of 100% means that no infection is observed.

Question: What does the source list for `Cc1sc(-c2ccc(Cl)cc2)nc1C1=C(O)C2(CCCCC2)CC1=O` [Example I-1-a-2]?
Answer: Kill rate in % after 7 d [1]: 100%; % damage, Alopecurus [2]: 90%; % damage, Avena fatua [3]: 100%; % damage, Setaria [4]: 100%; % damage, Sinapis [5]: 80%; % damage, Wheat [6]: 0%; % damage, Soya bean [7]: 0%; % damage, Digitaria [8]: 100%; % damage, Lolium [9]: 100%; % damage, Setaria [10]: 100%; % damage, Matricana [11]: 95%; ED50 value [12]: <0.1 ppm; ED50 value [13]: <0.1 ppm; ED50 value [14]: <0.1 ppm; % efficacy [15]: 100%; % efficacy [16]: 91%; % efficacy [17]: 93%; % efficacy [18]: 92%

From patent US7595404B2, “Thiazolyl-substituted carbocyclic 1,3-diones as pesticidal agents” (Bayer CropScience AG, priority 2001, dated 2009)
